Test results as given in patent US9745320B2, “Five-and-six-membered heterocyclic compound, and preparation method, pharmaceutical composition and use thereof” (SHANGHAI CHEMEXPLORER CO., LTD., priority 2013, dated 2017).

What was measured:
Type in all cases: biochemical
JAK3 = molecular target: T1, JAK3 (Homo sapiens, UniProt P52333); assay: JAK 3 enzymatic inhibitory activity IC50 assay (Caliper conversion rate); conditions: Km ATP, 28° C., 1 hour; read-out: JAK 3 enzymatic inhibitory activity IC50
T1 sequence (P52333 1-1124): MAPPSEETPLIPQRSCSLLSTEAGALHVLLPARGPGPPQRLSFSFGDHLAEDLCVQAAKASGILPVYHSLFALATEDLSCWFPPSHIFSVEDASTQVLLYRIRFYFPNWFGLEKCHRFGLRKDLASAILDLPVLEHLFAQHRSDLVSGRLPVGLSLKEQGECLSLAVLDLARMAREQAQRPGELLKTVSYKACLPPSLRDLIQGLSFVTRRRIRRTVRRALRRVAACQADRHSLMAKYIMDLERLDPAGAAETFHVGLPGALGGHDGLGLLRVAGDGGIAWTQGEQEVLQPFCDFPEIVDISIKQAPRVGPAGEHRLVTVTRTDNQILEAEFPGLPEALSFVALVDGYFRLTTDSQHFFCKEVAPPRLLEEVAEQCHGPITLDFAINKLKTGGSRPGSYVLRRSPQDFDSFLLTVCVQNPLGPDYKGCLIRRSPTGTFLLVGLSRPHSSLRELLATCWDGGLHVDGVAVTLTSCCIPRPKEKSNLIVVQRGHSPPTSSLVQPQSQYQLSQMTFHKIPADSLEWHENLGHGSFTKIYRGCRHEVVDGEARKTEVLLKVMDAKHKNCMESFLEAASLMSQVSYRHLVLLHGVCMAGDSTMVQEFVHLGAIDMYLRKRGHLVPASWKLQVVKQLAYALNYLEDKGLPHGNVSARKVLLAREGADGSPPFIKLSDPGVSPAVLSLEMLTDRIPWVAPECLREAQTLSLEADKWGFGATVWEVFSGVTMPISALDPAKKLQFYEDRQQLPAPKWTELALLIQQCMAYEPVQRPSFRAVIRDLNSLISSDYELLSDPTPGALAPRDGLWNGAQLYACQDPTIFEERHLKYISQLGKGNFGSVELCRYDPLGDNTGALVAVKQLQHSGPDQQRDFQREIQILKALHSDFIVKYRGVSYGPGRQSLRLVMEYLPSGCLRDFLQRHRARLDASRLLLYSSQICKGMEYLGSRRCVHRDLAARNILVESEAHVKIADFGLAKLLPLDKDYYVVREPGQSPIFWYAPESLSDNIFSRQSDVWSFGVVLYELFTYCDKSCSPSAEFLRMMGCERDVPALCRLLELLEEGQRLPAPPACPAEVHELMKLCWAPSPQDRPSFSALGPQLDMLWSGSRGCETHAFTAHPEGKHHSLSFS
Procedure: (§1) Biological effect: intracytoplasmic JAK 1,2,3 enzymatic inhibitory activity IC50 assay
(§2) JAK1 buffer solution: 25 mM HEPES, pH 7.5, 0.01% Brij-35, 0.01 M Triton. JAK2,3 buffer solution: 50 mM HEPES, pH 7.5, 0.0015% Brij-35.
(§3) 2. Compound was formulated in 100% DMSO in a concentration gradient, deposited to a 384-well plate with a final concentration of 2% of DMSO.
3. JAK2,3 enzymes were diluted to having an optimum concentration with the following buffer: 50 mM HEPES, pH 7.5, 0.0015% Brij-35, 2 mM DTT. JAK1 enzyme was diluted to having an optimum concentration with the following buffer: 25 mM HEPES, pH 7.5, 0.01% Brij-35, 2 mM DTT, 0.01M Triton. Then they were transferred to a 384-well plate and incubated with the compound for a certain time. […]
(§4) 5. Read the conversion rate by Caliper Reader, and the inhibition rate are calculated according to the average of two tests.

JAK1 = JAK1 (Homo sapiens, UniProt P23458); assay: JAK 1 enzymatic inhibitory activity IC50 assay (Caliper conversion rate); conditions: Km ATP, 28° C., 1 hour
Procedure: as §1, §2, §3
(§5) 3. JAK2,3 enzymes were diluted to having an optimum concentration with the following buffer: 50 mM HEPES, pH 7.5, 0.0015% Brij-35, 2 mM DTT. JAK1 enzyme was diluted to having an optimum concentration with the following buffer: 25 mM HEPES, pH 7.5, 0.01% Brij-35, 2 mM DTT, 0.01M Triton. Then they were transferred to a 384-well plate and incubated with the compound for a certain time.
(§6) 4. JAK2,3 substrate was diluted to having an optimum concentration with the following buffer: 50 mM HEPES, pH 7.5, 0.0015% Brij-35, 10 mM MgCl2, Km adenosine triphosphate. JAK1 substrate was diluted to having an optimum concentration with the following buffer: 25 mM HEPES, pH 7.5, 0.01% Brij-35, 10 mM MgCl2, 0.01 M Triton. Km adenosine triphosphate was added into 384-well plates to initiate reactions, and the reaction were carried out at 28° C. for 1 hour.
as §4

JAK2 = JAK2 (Homo sapiens, UniProt O60674); assay: JAK 2 enzymatic inhibitory activity IC50 assay (Caliper conversion rate); conditions: Km ATP, 28° C., 1 hour
Procedure: as §1, §2, §3, §5, §6, §4

Sequence of JAK1 (P23458 whole entry, species assumed): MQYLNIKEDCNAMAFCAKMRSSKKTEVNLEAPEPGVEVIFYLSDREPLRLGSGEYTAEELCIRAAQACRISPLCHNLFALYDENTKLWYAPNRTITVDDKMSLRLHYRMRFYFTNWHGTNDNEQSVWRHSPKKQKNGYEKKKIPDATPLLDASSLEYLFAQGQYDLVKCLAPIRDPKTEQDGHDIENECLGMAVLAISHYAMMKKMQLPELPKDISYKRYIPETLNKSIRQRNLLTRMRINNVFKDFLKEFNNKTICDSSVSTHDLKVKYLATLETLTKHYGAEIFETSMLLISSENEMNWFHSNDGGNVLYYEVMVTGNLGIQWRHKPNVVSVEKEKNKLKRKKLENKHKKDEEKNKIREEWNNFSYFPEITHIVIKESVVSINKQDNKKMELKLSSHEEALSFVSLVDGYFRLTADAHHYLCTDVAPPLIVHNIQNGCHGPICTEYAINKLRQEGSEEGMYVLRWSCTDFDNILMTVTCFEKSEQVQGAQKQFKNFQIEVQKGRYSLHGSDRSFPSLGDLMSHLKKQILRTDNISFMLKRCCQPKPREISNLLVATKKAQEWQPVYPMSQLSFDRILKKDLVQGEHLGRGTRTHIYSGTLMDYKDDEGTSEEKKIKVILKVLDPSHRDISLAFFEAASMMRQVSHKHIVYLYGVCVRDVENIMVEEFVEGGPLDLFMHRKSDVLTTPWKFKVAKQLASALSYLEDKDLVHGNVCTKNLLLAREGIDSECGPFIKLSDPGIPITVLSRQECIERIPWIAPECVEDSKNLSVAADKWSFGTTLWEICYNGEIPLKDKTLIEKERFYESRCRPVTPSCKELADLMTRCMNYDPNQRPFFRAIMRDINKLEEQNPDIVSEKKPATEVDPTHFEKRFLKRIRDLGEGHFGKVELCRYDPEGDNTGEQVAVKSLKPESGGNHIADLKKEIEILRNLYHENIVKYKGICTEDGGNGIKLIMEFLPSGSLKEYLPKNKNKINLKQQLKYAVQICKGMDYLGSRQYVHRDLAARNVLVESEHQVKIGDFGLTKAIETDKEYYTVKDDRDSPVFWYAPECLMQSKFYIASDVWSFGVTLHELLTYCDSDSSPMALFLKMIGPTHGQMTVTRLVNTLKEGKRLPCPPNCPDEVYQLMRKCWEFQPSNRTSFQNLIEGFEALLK
Sequence of JAK2 (O60674 whole entry, species assumed): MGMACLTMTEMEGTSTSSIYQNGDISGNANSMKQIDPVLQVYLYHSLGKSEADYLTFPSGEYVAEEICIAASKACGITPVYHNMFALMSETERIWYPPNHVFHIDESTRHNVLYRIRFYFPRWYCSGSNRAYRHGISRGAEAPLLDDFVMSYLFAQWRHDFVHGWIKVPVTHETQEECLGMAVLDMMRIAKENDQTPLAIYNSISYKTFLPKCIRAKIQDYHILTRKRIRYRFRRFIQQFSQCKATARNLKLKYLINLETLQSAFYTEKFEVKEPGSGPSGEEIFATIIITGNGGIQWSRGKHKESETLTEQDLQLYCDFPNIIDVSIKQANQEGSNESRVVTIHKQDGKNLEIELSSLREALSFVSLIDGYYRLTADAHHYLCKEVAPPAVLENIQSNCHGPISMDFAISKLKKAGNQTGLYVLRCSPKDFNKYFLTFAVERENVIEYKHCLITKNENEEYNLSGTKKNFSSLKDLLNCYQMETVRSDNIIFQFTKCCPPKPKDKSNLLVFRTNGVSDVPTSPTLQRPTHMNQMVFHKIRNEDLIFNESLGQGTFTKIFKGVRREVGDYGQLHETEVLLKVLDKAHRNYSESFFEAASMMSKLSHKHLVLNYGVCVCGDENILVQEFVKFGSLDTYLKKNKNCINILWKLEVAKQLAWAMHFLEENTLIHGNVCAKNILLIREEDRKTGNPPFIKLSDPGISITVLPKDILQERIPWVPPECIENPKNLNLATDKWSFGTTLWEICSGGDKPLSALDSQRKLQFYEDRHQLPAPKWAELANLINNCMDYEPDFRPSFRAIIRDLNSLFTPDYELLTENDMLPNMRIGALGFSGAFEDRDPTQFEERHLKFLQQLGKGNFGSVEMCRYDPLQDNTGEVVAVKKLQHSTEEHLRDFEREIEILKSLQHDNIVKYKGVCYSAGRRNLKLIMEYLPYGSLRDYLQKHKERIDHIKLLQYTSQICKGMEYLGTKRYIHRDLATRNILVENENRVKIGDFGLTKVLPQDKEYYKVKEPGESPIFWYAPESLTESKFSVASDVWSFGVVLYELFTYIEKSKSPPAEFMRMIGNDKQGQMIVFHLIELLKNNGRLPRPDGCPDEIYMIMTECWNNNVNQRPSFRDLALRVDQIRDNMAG

IC50 (JAK3) [nM]	IC50 (JAK1) [nM]	IC50 (JAK2) [nM]	Structure (SMILES)
50 to 500	50 to 500	< 50	Cn1cc(Nc2nc(-c3cnn(C4(CC#N)CC(F)C4)c3)c3sccc3n2)cn1 (stereo not shown) [Compound T-77, 2-(3-Fluoro-1-(4-(2-((1-methyl-1H-pyrazol-4-yl)amino)thieno[3,2-d]pyrimidin-4-yl)-1H-pyrazol-1-yl)cyclobutyl)acetonitrile]
< 50	< 50	< 50	C[C@@H](CO)n1cc(Nc2nc(-c3cnn(C4(CC#N)CN(S(C)(=O)=O)C4)c3)c3sccc3n2)cn1 [Compound T-85, (S)-2-(3-(4-(2-((1-(1-Hydroxypropan-2-yl)-1H-pyrazol-4-yl)amino)thieno[3,2-d]pyrimidin-4-yl)-1H-pyrazol-1-yl)-1-(methylsulfonyl)azetidin-3-yl)acetonitrile]
> 1000		< 50	CCS(=O)(=O)N1CC(CC#N)(n2cc(-c3nc(Nc4ccc(F)cc4)nc4ccsc34)cn2)C1 [Compound T-24, 2-(1-(Ethylsulfonyl)-3-(4-(2-((4-fluorophenyl)amino)thieno[3,2-d]pyrimidin-4-yl)-1H-pyrazol-1-yl)azetidin-3-yl)acetonitrile]
< 50	< 50	< 50	CCS(=O)(=O)N1CC(CC#N)(n2cc(-c3nc(Nc4cnn(C5CCOCC5)c4)nc4ccsc34)cn2)C1 [Compound T-38, 2-(1-(Ethylsulfonyl)-3-(4-(2-((1-(tetrahydro-2H-pyran-4-yl)-1H-pyrazol-4-yl)amino)thieno[3,2-d]pyrimidin-4-yl)-1H-pyrazol-1-yl)azetidin-3-yl)acetonitrile]
< 50	< 50	< 50	CCS(=O)(=O)N1CC(CC#N)(n2cc(-c3nc(Nc4cnn(CCOC)c4)nc4ccsc34)cn2)C1 [Compound T-70, 2-(1-(Ethylsulfonyl)-3-(4-(2-((1-(2-methoxyethyl)-1H-pyrazol-4-yl)amino)thieno[3,2-d]pyrimidin-4-yl)-1H-pyrazol-1-yl)azetidin-3-yl)acetonitrile]
50 to 500	< 50	< 50	CCS(=O)(=O)N1CC(CC#N)(n2cc(-c3nc(Nc4cnn(CC(F)(F)F)c4)nc4ccsc34)cn2)C1 [Compound T-69, 2-(1-(Ethylsulfonyl)-3-(4-(2-((1-(2,2,2-trifluoroethyl)-1H-pyrazol-4-yl)amino)thieno[3,2-d]pyrimidin-4-yl)-1H-pyrazol-1-yl)azetidin-3-yl)acetonitrile]
< 50	< 50	< 50	C[C@@H](O)Cn1cc(Nc2nc(-c3cnn(C4(CC#N)CN(S(C)(=O)=O)C4)c3)c3sccc3n2)cn1 [Compound T-86, (R)-2-(3-(4-(2-((1-(2-Hydroxypropyl)-1H-pyrazol-4-yl)amino)thieno[3,2-d]pyrimidin-4-yl)-1H-pyrazol-1-yl)-1-(methylsulfonyl)azetidin-3-yl)acetonitrile]
50 to 500	< 50	< 50	CCS(=O)(=O)N1CC(CC#N)(n2cc(-c3nc(Nc4cnn(CC(=O)O)c4)nc4ccsc34)cn2)C1 [Compound T-33, 2-(4-((4-(1-(3-(Cyanomethyl)-1-(ethylsulfonyl)azetidin-3-yl)-1H-pyrazol-4-yl)thieno[3,2-d]pyrimidin-2-yl)amino)-1H-pyrazol-1-yl)acetic acid]
50 to 500	50 to 500	< 50	C[C@@H](O)Cn1cc(Nc2nc(-c3cnn(C4(CC#N)COC4)c3)c3sccc3n2)cn1 [Compound T-80, (R)-2-(3-(4-(2-((1-(2-Hydroxypropyl)-1H-pyrazol-4-yl)amino)thieno[3,2-d]pyrimidin-4-yl)-1H-pyrazol-1-yl)oxetan-3-yl)acetonitrile]
> 1000		> 1000	CCS(=O)(=O)N1CC(CC#N)(n2cc(-c3nc(NC4CCOCC4)nc4ccsc34)cn2)C1 [Compound T-06, 2-(1-(Ethylsulfonyl)-3-(4-(2-((tetrahydro-2H-pyran-4-yl)amino)thieno[3,2-d]pyrimidin-4-yl)-1H-pyrazol-1-yl)azetidin-3-yl)acetonitrile]
50 to 500	< 50	< 50	CCS(=O)(=O)N1CC(CC#N)(n2cc(-c3nc(Nc4cn[nH]c4)nc4ccsc34)cn2)C1 [Compound T-31, 2-(3-(4-(2-((1H-Pyrazol-4-yl)amino)thieno[3,2-d]pyrimidin-4-yl)-1H-pyrazol-1-yl)-1-(ethylsulfonyl)azetidin-3-yl)acetonitrile]
< 50	< 50	< 50	CC(C)(O)Cn1cc(Nc2nc(-c3cnn(C4(CC#N)CN(S(C)(=O)=O)C4)c3)c3sccc3n2)cn1 [Compound T-78, 2-(3-(4-(2-((1-(2-Hydroxy-2-methylpropyl)-1H-pyrazol-4-yl)amino)thieno[3,2-d]pyrimidin-4-yl)-1H-pyrazol-1-yl)-1-(methylsulfonyl)azetidin-3-yl)acetonitrile]
50 to 500	50 to 500	< 50	N#CCC1(n2cc(-c3nc(Nc4cnn(C5CC5)c4)nc4ccsc34)cn2)CC1 [Compound T-76, 2-(1-(4-(2-((1-Cyclopropyl-1H-pyrazol-4-yl)amino)thieno[3,2-d]pyrimidin-4-yl)-1H-pyrazol-1-yl)cyclopropyl)acetonitrile]
> 1000		< 50	N#CCC(C1CCCC1)n1cc(-c2nc(Nc3cncnc3)nc3ccsc23)cn1 (stereo not shown) [Compound T-04, 3-Cyclopentyl-3-(4-(2-(pyrimidin-5-ylamino)thieno[3,2-d]pyrimidin-4-yl)-1H-pyrazol-1-yl)propanenitrile]
> 1000		< 50	N#CCC(C1CCCC1)n1cc(-c2nc(Nc3ccccc3)nc3ccsc23)cn1 (stereo not shown) [Compound T-03, 3-Cyclopentyl-3-(4-(2-(phenylamino)thieno[3,2-d]pyrimidin-4-yl)-1H-pyrazol-1-yl)propanenitrile]
> 1000		50 to 500	CC(CC#N)n1cc(-c2nc(Nc3ccccc3)nc3ccsc23)cn1 (stereo not shown) [Compound T-02, 3-(4-(2-(Phenylamino)thieno[3,2-d]pyrimidin-4-yl)-1H-pyrazol-1-yl)butanenitrile]
50 to 500		< 50	CCS(=O)(=O)N1CC(CC#N)(n2cc(-c3nc(Nc4ccc(OCCN5CCOCC5)cc4)nc4ccsc34)cn2)C1 [Compound T-08, 2-(1-(Ethylsulfonyl)-3-(4-(2-((4-(2-morpholinoethoxy)phenyl)amino)thieno[3,2-d]pyrimidin-4-yl)-1H-pyrazol-1-yl)azetidin-3-yl)acetonitrile]
> 1000		> 1000	CCS(=O)(=O)N1CC(CC#N)(n2cc(-c3nc(NC4CCCCC4)nc4ccsc34)cn2)C1 [Compound T-27, 2-(3-(4-(2-(Cyclohexylamino)thieno[3,2-d]pyrimidin-4-yl)-1H-pyrazol-1-yl)-1-(ethylsulfonyl)azetidin-3-yl)acetonitrile]
> 1000		> 1000	CC(CC#N)n1cc(-c2nc(NCc3ccccc3)nc3ccsc23)cn1 (stereo not shown) [Compound T-01, 3-(4-(2-(Benzylamino)thieno[3,2-d]pyrimidin-4-yl)-1H-pyrazol-1-yl)butanenitrile]
